Laboratory results as given in patent US10533021B2, “Boron-containing small molecules” (Anacor Pharmaceuticals, Inc., priority 2007, dated 2020).
Structures can show the parent of a compound that is named as a salt.

Experiments:
E. coli = test: Resistance of E. coli mutants selected against the compound (MIC); format: cell-based; conditions: E. coli mutants showing resistance to compound vs wildtype
Source text: In an exemplary assay, activity of a representative compound against the editing domain was confirmed. To identify the target of the novel boron-containing antibacterial compound (A1), mutants in E. coli showing resistance to compound (A1) were isolated. […] The leuS gene from the mutants was cloned onto a plasmid and their resistance was confirmed by MIC. The editing domain from these mutants were sequenced and the mutations were all located in the editing domain of this enzyme.
All MIC testing of bacteria followed the Clinical and Laboratory Standards Institute (CLSI) guidelines for antimicrobial testing of aerobic bacteria (Methods for Dilution Antimicrobial Susceptibility Tests for Bacteria That Grow Aerobically; Approved Standard—Seventh Edition) (M07-A7) and anaerobic bacteria (Methods for Antimicrobial Susceptibility Testing of Anaerobic Bacteria; Approved Standard—Seventh Edition) (M11-A7).
Compare the minimal inhibitory concentration (MIC) of a tolC Escherichia coli strain bearing a pUC derived plasmid with and without an leuS gene insert.
If the MIC of the strain bearing the extra copies of leuS is greater than 2-fold more than the control strain then pour LB agar plates with four times the concentration of the MIC of the compound.
Plate 1×10^10 E. coli on ten plates containing 4×MIC of the compound. […]

Nail plate penetration = format: in vitro ADME
[1] = Solubility (water and formulation solvents); format: physicochemical; conditions: water

Structure (SMILES)	penetration of the nail plate (Nail plate penetration)	solubility [1]	also measured
NCC1OB(O)c2ccccc21 (centres unmarked) [A1, 3-Aminomethyl-3H-benzo[c][1,2]oxaborol-1-ol) hydrochloride]	–	–	fold increase in resistance of E. coli mutants over wildtype (E. coli): 32-256 fold
Fc1ccc2c(c1)COB2c1ccccc1 [Compound 3]	penetrates the nail plate poorly	–	–
Cc1cc(C2CCCCC2)n(O)c(=O)c1 [ciclopirox, reference compound]	penetrates the nail plate poorly	–	–

Second part, led by results:

penetration of the nail plate (Nail plate penetration)	solubility [1]	Structure (SMILES)	also measured
–	> 100 µg/mL	OB1OCc2cc(F)ccc21 [compound 1]	–
–	> 100 µg/mL	OB1OCc2cc(Cl)ccc21 [compound 2]	–
